Consider 19 molecules from patent US6753337B2, “Alkynyl containing hydroxamic acid compounds as matrix metalloproteinase/tace inhibitors” (Wyeth Holdings Corporation, priority 1999, dated 2004).

Holding throughout (type): biochemical
Assay [1] addresses T1, MMP-1 (Homo sapiens, UniProt P03956).
T1 sequence (P03956 100-469): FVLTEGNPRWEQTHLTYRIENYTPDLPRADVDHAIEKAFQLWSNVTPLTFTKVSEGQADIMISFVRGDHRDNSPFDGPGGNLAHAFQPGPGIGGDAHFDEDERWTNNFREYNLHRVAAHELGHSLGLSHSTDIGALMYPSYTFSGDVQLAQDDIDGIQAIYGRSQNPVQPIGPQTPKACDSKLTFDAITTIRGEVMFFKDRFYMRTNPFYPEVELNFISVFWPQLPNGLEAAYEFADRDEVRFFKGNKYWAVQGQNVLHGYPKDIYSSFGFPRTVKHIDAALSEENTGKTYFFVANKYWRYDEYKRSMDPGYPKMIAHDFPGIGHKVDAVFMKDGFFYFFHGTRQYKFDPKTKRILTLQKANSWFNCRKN
In words: MMP-1 inhibition (thiopeptide or fluorescent peptide substrate). As to conditions: read-out: MMP1 IC50. The method, then: (§1) These standard pharmacological test procedures are based on the cleavage of a thiopeptide substrates such as Ac-Pro-Leu-Gly(2-mercapto-4-methyl-pentanoyl)-Leu-Gly-OEt by the matrix metalloproteinases MMP-1, MMP-13 (collagenases) or MMP-9 (gelatinase), which results in the release of a substrate product that reacts colorimetrically with DTNB (5,5′-dithiobis(2-nitro-benzoic acid)). The enzyme activity is measured by the rate of the color increase. The thiopeptide substrate is made up fresh as a 20 mM stock in 100% DMSO and the DTNB is dissolved in 100% DMSO as a 100 mM stock and stored in the dark at room temperature. Both the substrate and DTNB are diluted together to 1 mM with substrate buffer (50 mM HEPES pH 7.5, 5 mM CaCl2) before use. The stock of enzyme is diluted with buffer (50 mM HEPES, pH 7.5, 5 mM CaCl2, 0.02% Brij) to the desired final concentration. The buffer, enzyme, vehicle or inhibitor, and DTNB/substrate are added in this order to a 96 well plate (total reaction volume of 200 μl) and the increase in color is monitored spectrophotometrically for 5 minutes at 405 nm on a plate reader and the increase in color over time is plotted as a linear line.
(§2) Alternatively, a fluorescent peptide substrate is used. In this test procedure, the peptide substrate contains a fluorescent group and a quenching group. Upon cleavage of the substrate by an MMP, the fluorescence that is generated is quantitated on the fluorescence plate reader. The assay is run in HCBC assay buffer (50 mM HEPES, pH 7.0, 5 mM Ca^+2, 0.02% Brij, 0.5% Cysteine), with human recombinant MMP-1, MMP-9, or MMP-13. The substrate is dissolved in methanol and stored frozen in 1 mM aliquots. For the assay, substrate and enzymes are diluted in HCBC buffer to the desired concentrations. Compounds are added to the 96 well plate containing enzyme and the reaction is started by the addition of substrate. The reaction is read (excitation 340 nm, emission 444 nm) for 10 min. and the increase in fluorescence over time is plotted as a linear line.
(§3) For either the thiopeptide or fluorescent peptide test procedures, the slope of the line is calculated and represents the reaction rate. The linearity of the reaction rate is confirmed (r^2>0.85). The mean (x±sem) of the control rate is calculated and compared for statistical significance (p<0.05) with drug-treated rates using Dunnett's multiple comparison test. Dose-response relationships can be generated using multiple doses of drug and IC50 values with 95% CI are estimated using linear regression.

Assay [2] concerns the target MMP-13 (Homo sapiens, UniProt P45452). In words: MMP-13 inhibition (thiopeptide or fluorescent peptide substrate). As to conditions: read-out: MMP13 IC50. Here is the method:
The enzyme activity is measured by the rate of the color increase. The thiopeptide substrate is made up fresh as a 20 mM stock in 100% DMSO and the DTNB is dissolved in 100% DMSO as a 100 mM stock and stored in the dark at room temperature. Both the substrate and DTNB are diluted together to 1 mM with substrate buffer (50 mM HEPES pH 7.5, 5 mM CaCl2) before use. The stock of enzyme is diluted with buffer (50 mM HEPES, pH 7.5, 5 mM CaCl2, 0.02% Brij) to the desired final concentration.
as §2, with “substrate.” for “substrate. The reaction is read (excitation 340 nm, emission 444 nm) for 10 min. and the increase in fluorescence over time is plotted as a linear line.”
For either the thiopeptide or fluorescent peptide test procedures, the slope of the line is calculated and represents the reaction rate. […] The mean (x±sem) of the control rate is calculated and compared for statistical significance (p<0.05) with drug-treated rates using Dunnett's multiple comparison test.

Assay [3] concerns the target MMP-9 (Homo sapiens, UniProt P14780). In words: MMP-9 inhibition (thiopeptide or fluorescent peptide substrate). As to conditions: read-out: MMP9 IC50. The method, then: as §1, §2, §3

Molecules are shown by their SMILES. Where a name gives a salt, the structure may show the parent alone. Read-outs that look alike come from different tables or passages of the source.

Sequence of MMP-9 (P14780 94-707): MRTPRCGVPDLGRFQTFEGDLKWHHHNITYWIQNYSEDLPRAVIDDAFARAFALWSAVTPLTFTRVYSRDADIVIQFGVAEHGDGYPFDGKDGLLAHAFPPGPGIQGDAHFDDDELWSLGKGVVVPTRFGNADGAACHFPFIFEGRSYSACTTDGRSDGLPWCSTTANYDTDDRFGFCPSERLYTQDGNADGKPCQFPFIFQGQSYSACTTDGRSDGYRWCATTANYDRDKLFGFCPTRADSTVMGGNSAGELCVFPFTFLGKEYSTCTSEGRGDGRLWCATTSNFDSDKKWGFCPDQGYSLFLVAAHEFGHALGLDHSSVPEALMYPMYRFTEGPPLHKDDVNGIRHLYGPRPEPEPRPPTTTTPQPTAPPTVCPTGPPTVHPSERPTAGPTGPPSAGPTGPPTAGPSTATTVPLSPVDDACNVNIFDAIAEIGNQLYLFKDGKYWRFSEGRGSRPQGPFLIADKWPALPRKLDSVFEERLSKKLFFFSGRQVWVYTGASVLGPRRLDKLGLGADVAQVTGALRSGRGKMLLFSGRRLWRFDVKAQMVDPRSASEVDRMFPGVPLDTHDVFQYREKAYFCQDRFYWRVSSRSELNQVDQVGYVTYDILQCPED

One may read the IC50 as the point on the concentration scale where inhibition reaches its midpoint. Turning to `CC#CCOc1ccc(SCC2(C(=O)NO)CCNCC2)cc1` [Example 31, 4-({[4-(But-2-ynyloxy)phenyl]thio}methyl)-N-hydroxypiperidine-4-carboxamide], the IC50 in assay [1], in assay [2] and in assay [3] was greater than 10000 nM throughout.
Take `CC#CCOc1ccc(S(=O)(=O)C2(C(=O)NO)CCN(C(=O)C(C)(CO)CO)CC2)cc1` [Example 74, 4-(4-But-2-ynyloxybenzenesulfonyl)-N-hydroxy-1-[3-hydroxy-2-(hydroxymethyl)-2-methylpropanoyl]-4-piperidinecarboxamide]: the IC50 is 4340 nM in assay [1], 287 nM in assay [2] and 963 nM in assay [3].
Regarding `CC#CCOc1ccc(S(=O)(=O)C2(C(=O)NO)CCCN(Cc3ccc(Cl)cc3)C2)cc1` (stereo not drawn) [Example 25, 3-{[4-(2-butynyloxy)phenyl]sulfonyl}-1-(4-chlorobenzyl)-N-hydroxy-3-piperidinecarboxamide], the IC50 was greater than 10000 nM in assay [1], 1180 nM in assay [2] and 2740 nM in assay [3].
On to `CC#CCOc1ccc(S(=O)(=O)C2(C(=O)NO)CCN(Cc3ccc(OCCN4CCCCC4)cc3)CC2)cc1` [Example 26, 4-{[4-(2-Butynyloxy)phenyl]sulfonyl}-1-[4-(2-piperidin-1-yl-ethoxy)-benzyl]-piperidine-4-carboxylic acid hydroxyamide], for which the values for the IC50 in assay [1] (cells that print nM), in assay [2] and in assay [3] were 1990 nM, 22.1 nM and 25.1 nM, respectively.
`C#CCOc1ccc(S(=O)(=O)C2(C(=O)NO)CCN(Cc3ccc(Br)cc3)CC2)cc1` [Example 11, 1-(4-Bromo-benzyl)-4-(4-prop-2-ynyloxy-benzenesulfonyl)-piperdine-4-carboxylic acid hydroxyamide]: the IC50 in assay [1] is 143 nM; in assay [2], 3.1 nM; in assay [3], 5.8 nM.
On the same counts, the results for `CCC#CCOc1ccc(S(=O)(=O)C2(C(=O)NO)CCN(Cc3ccc(Br)cc3)CC2)cc1` [Example 5, 1-(4-Bromo-benzyl)-4-(4-pent-2-ynyloxy-benzenesulfonyl)-piperdine-4-carboxylic acid hydroxyamide] are 300 nM, 180 nM and 400 nM.
On the same counts, the results for `CC#CCOc1ccc(S(=O)(=O)CC2(C(=O)NO)CCN(C(=O)NC(C)(C)C)CC2)cc1` [Example 38] are roughly 10000 nM, 279 nM and 1440 nM.
On the same counts, the results for `CC#CCOc1ccc(S(=O)(=O)C2(C(=O)NO)CCN(C(CC)CC)CC2)cc1` [Example 27, 4-{[4-(2-Butynyloxy)phenyl]sulfonyl}-1-(3-pentanyl)-piperidine-4-carboxylic acid hydroxyamide] are greater than 10000 nM, 426 nM and 1540 nM.
On to `CC#CCOc1ccc(S(=O)(=O)C2(C(=O)NO)CCN(Cc3ccccc3)CC2)cc1` [Example 4, 1-Benzyl-4-(4-but-2-ynyloxy-benzenesulfonyl)-piperdine-4-carboxylic acid hydroxyamide], for which the IC50 in assay [1] was determined as 2600 nM; in assay [2], 47.3 nM; in assay [3], 148 nM.
For `CC#CCOc1ccc([S+]([O-])C2(C(=O)NO)CCNCC2)cc1` (stereo not drawn) [Example 81, 4-(4-(But-2-ynyloxy-benzenesulfinyl)-piperidine-4-carboxylic acid hydroxamide hydrochloride] the same measures were 1880 nM, 593 nM and 1040 nM.
For `CC#CCOc1ccc(S(=O)(=O)C2(C(=O)NO)CCNCC2)cc1` [Example 76, 4-{[4-(2-butynyloxy)phenyl]sulfonyl}-N-hydroxy-4-piperidinecarboxamide hydrochloride] the same measures were 4500 nM, 4020 nM and 7890 nM.
For `CC#CCOc1ccc(S(=O)(=O)C2(C(=O)NO)CCCN(CC)C2)cc1` (stereo not drawn) [Example 24, 3-{[4-(2-Butynyloxy)phenyl]sulfonyl}-1-ethyl-N-hydroxy-3-piperidinecarboxamide], the IC50 in assay [1] (cells that print nM) is 5670 nM; in assay [2] it was 463 nM; in assay [3], 2080 nM.
Consider `CC#CCOc1ccc(S(=O)(=O)C2(C(=O)NO)CCN(S(=O)(=O)C(F)(F)F)CC2)cc1` [Example 69, 4-(4-But-2-ynyloxybenzenesulfonyl)-N-hydroxy-1-[(trifluoromethyl)-sulfonyl]-4-piperidinecarboxamide], for which the IC50 in assay [1] came to 4000 nM; in assay [2], 499 nM; in assay [3], 1250 nM.
`C#CCOc1ccc(S(=O)(=O)C2(C(=O)NO)CCN(Cc3ccc(OC)cc3)CC2)cc1` [Example 28, 1-(4-Methoxy-benzyl)-4-(4-prop-2-ynyloxy-benzenesulfonyl)-piperidine-4-carboxylic acid hydroxyamide]: the values for the IC50 in assay [1] (cells that print nM), in assay [2] and in assay [3] were 106 nM, 5.3 nM and 15.4 nM, respectively.
As to `CC#CCOc1ccc(S(=O)(=O)C2(C(=O)NO)CCN(Cc3ccc(C(=O)OC)cc3)CC2)cc1` [Example 77, hydrochloride], the IC50 in assay [1] stood at 2190 nM; in assay [2] it was 349 nM; in assay [3], 149 nM.
As to `CC#CCOc1ccc(S(=O)(=O)C2(C(=O)NO)CCN(Cc3ccc(C)cc3)CC2)cc1` [Example 9, 4-(4-But-2-ynyloxy-benzenesulfonyl)-1-(4-methyl-benzyl)-piperidine-4-carboxylic acid hydroxamide], the IC50 in assay [1] is 2100 nM; in assay [2], 35.2 nM; in assay [3], 96.2 nM.
For `CC#CCOc1ccc(S(=O)(=O)C2(C(=O)NO)CCN(S(=O)(=O)c3ccc(OC)cc3)CC2)cc1` [Example 72, 4-(4-but-2-ynyloxybenzenesulfonyl)-N-hydroxy-1-[(4-methoxyphenyl)-sulfonyl]-4-piperidinecarboxamide] the same measures were 4160 nM, 369 nM and 1210 nM.
On the same counts, the results for `CC#CCOc1ccc(S(=O)(=O)C2(C(=O)NO)CCN(C(C)=O)CC2)cc1` [Example 64, 1-Acetyl-4-(4-but-2-ynyloxybenzenesulfonyl)piperidine-4-carboxylic acid hydroxamide] are 4080 nM, 136 nM and 560 nM.
For `CC#CCOc1ccc(S(=O)(=O)C2(C(=O)NO)CCN(C(=O)OCC)CC2)cc1` [Example 68, Ethyl 4-(4-but-2-ynyloxybenzenesulfonyl)-4-[(hydroxyamino)-carbonyl]-1-piperidinecarboxylate] the same measures were 2250 nM, 503 nM and 1330 nM.
